The values below come from patent publication US10640452B2, “Branched trialkyl quaternary ammonium compounds” (Eastman Chemical Company, priority 2018, dated 2020).

The subject of one data set is Escherichia coli. As to the kind of experiment: Antimicrobial screening, microplate dilution assay (MIC) and agar spotting (MLC). Format: cell-based. Particulars: Escherichia coli (Gram neg bacteria); for MIC < 10%: lowest concentration with growth less than 10% of control; for MIC < 10% / MIC < 50%: approx. 24 h, 32° C.; for MIC < 50%: lowest concentration with growth less than 50% of control; for MLC: minimum lethal concentration, absence of growth on agar. On the procedure:
(§1) The minimum inhibitory concentration (MIC) and the minimum lethal concentration (MLC) of the chemicals were determined using a microplate dilution assay. Quats were provided as aqueous solutions, while Triclosan and Chloroxylenol were provide as powders which were first dissolved at 5 weight percent in absolute ethanol. A two-fold serial dilution series of each test chemical was prepared in Trypticase Soy Broth at 20% of the standard concentration (TSB20) and in Sabouraud Dextrose Broth at 20% of the standard concentration (SDB20) in 96-well micro-titer plates. A total of 10 dilutions were prepared and four replicate tests were performed for each dilution. […] Control solutions containing only media were included for each plate. Suspensions of Staphylococcus aureus, Escherichia coli, and Candida albicans were prepared from one-day old agar plate cultures in Butterfields Phosphate Diluent to a concentration of approximately 10^7 to 10^8 cells per milliliter. Each test well was inoculated with the diluted culture suspensions at a concentration of 10^3 to 10^4 cells per well and then incubated at 32° C. with shaking at 150 rpm for approximately 24 hours, after which the optical density of each well was determined spectrophotometrically at 600 nm. Wells containing uninoculated media without test chemical were included in each plate as negative controls and, following inoculation, as positive controls.
(§2) Selected wells at or below the MIC were tested for MLC by spotting three microliters from each replicate well onto Trypticase Soy agar for S. aureus and E. coli, or Sabouraud Dextrose agar for C. albicans.

The subject of a further data set is Staphylococcus aureus. Described as above. Format: cell-based. Particulars: Staphylococcus aureus (Gram pos bacteria); for MIC < 10%: lowest concentration with growth less than 10% of control; for MIC < 10% / MIC < 50%: approx. 24 h, 32° C.; for MIC < 50%: lowest concentration with growth less than 50% of control; for MLC: minimum lethal concentration, absence of growth on agar. The method, then: as §1, §2

A further data set concerns Candida albicans. The description is as above. Type of data set: cell-based. The following applies: Candida albicans (yeast); for MIC < 10%: lowest concentration with growth less than 10% of control; for MIC < 10% / MIC < 50%: approx. 24 h, 32° C.; for MIC < 50%: lowest concentration with growth less than 50% of control; for MLC: minimum lethal concentration, absence of growth on agar. The method, then:
as §1, §2

Data set [1] is described as follows: Ready Biodegradability - CO2 Evolution Test OECD 301B. The method, then: The biodegradability of the branched aldehyde intermediates of Example 2 (4-ethyl-2-methyloctanal) and Example 25 (2,4-diethyl-2-octenal) were determined by the Ready Biodegradability—CO2 Evolution Test—Degradation of test compound according to OECD Guidelines for Testing of Chemicals CO2 Evolution Test 301B.

The structures appear in SMILES notation. Some results are limits rather than exact numbers.

Consider `CCCCCCCCCCCC[N+](C)(C)Cc1ccccc1.[Cl-]` [BAC-12 linear, benzalkonium chloride, C12], for which, in the data set with Escherichia coli, the “MIC < 10%” value worked out at 0.00078 Weight percent, the “MIC < 50%” value worked out at 0.00078 Weight percent and the MLC was determined as 0.00078 Weight percent. In the data set on Staphylococcus aureus, the “MIC < 10%” value is recorded as 0.0002 Weight percent, the “MIC < 50%” value was 0.0002 Weight percent and the MLC was 0.0002 Weight percent. In addition, in the data set with Candida albicans, the “MIC < 10%” value amounted to 0.0016 Weight percent, the “MIC < 50%” value turned out to be 0.00078 Weight percent and the MLC is recorded as 0.0016 Weight percent.
Turning to `CCCCC(CC)CC(C)C=O` (stereo not drawn) [Example 2, 4-ethyl-2-methyloctanal], the “Biodegradation (%)” value in data set [1] (day 0) was 0%; in data set [1] (day 2), 0%; in data set [1] (day 6), 15%; in data set [1] (day 7), 21%; in data set [1] (day 9), 31%; in data set [1] (day 14), 47%. The “Biodegradation (%)” value in data set [1] (day 19) is 54%; in data set [1] (day 23), 56%; in data set [1] (day 28), 57%; in data set [1] (day 29 (first line)) it was 57%; in data set [1] (day 29 (second line)) it was 61%.
As for `CCCCC(CC)CC(C=O)CC` (stereo not drawn) [Example 25, 2,4-diethyloctanal], the “Biodegradation (%)” value was determined as 0% in data set [1] (day 0); 0% in data set [1] (day 2); 0% in data set [1] (day 6); 9% in data set [1] (day 7); 27% in data set [1] (day 9); 48% in data set [1] (day 14). Further, the “Biodegradation (%)” value came to 53% in data set [1] (day 19); 53% in data set [1] (day 23); 55% in data set [1] (day 28); 55% in data set [1] (day 29 (first line)); 57% in data set [1] (day 29 (second line)).
For the compound `Oc1cc(Cl)ccc1Oc1ccc(Cl)cc1Cl` [Triclosan], the “MIC < 10%” value is on record as 0.00010 Weight percent against Escherichia coli, 0.00002 Weight percent against Staphylococcus aureus and 0.0016 Weight percent with Candida albicans. Besides, the “MIC < 50%” value with Escherichia coli was 0.00010 Weight percent; in the data set with Staphylococcus aureus it was 0.00002 Weight percent; against Candida albicans, 0.0016 Weight percent. Besides, the MLC in the data set on Escherichia coli is on record as 0.00010 Weight percent; with Staphylococcus aureus, 0.00003 Weight percent; in the data set with Candida albicans, more than 0.0016 Weight percent.
For the compound `CC(=O)[O-].[Na+]` [sodium acetate], the “Biodegradation (%)” value in data set [1] (day 0) was found to be 0%; in data set [1] (day 2) it was 32%; in data set [1] (day 6), 52%; in data set [1] (day 7), 54%; in data set [1] (day 9) it was 60%; in data set [1] (day 14) it was 66%. Also, the “Biodegradation (%)” value in data set [1] (day 19) came to 69%; in data set [1] (day 23) it was 71%; in data set [1] (day 28), 72%; in data set [1] (day 29 (first line)), 74%; in data set [1] (day 29 (second line)) it was 78%.
